Test results reported in patent publication US12396977B2, “Composition for treating degenerative brain diseases, containing 2-pentylfuran as active ingredient” (DAEGU GYEONGBUK INSTITUTE OF SCIENCE AND TECHNOLOGY, priority 2019, dated 2025).

How the values were obtained:
[1] = test system: primary microglia; experiment: Active oxygen (ROS) production in primary microglia; assay type: cell-based, mouse
Method: Superoxide concentrations were calculated by measuring the degree of decrease in cytochrome c using a VersaMax microplate reader (Babior et al., 1973). Microglia were cultured on a 96-well plate at a concentration of 1.0×10^5 cells/well, and the microglia were activated by a 10 μM ATP solution containing 2-pentylfuran and cytochrome c, or a solution of Sup mixed with cytochalasin B (5 μM; #C66762; Sigma Aldrich). The resulting ROS concentration was measured by changes in light absorption at 550 nm at intervals of 1 minute for 25 minutes.
Active oxygen levels were measured using 2′,7′-dichlorodihydrofluorescein diacetate (DCF-DA, #D6883; Sigma Aldrich) using a method that had undergone minor modifications from the existing method. (Bae et al., 2001). More specifically, the primary microglia were treated with 10 μM DCF-DA in a 24-well plate (5.0×10^5 cells/well) […] at a temperature of 37° C. for 30 minutes. One plate was treated with 2-PF and one was not. Cells in each well were measured by a flow cytometer (FACS Accuri™ C6; BD Biosciences). MFI was measured in the same manner as described above.

[2] = test system: primary microglia; experiment: Fura-2/AM calcium imaging of microglia; assay type: cell-based, mouse; conditions: 2-PF 100, 300, 1000 μM
Method: The newly isolated microglia were placed on poly-D-lysine-coated 18-mm aperture microscope cover glasses (#0111580; Marienfeld), and after 24 hours, the microglia were cultured in a superfusion chamber for 30 minutes. The chamber contained 4 μM of Fura-2/AM (Ca^2+-sensitive fluorescent dye; #F1221; Thermo Fisher Scientific) in a 0.22 μm-filtered Ringer's solution (115 mM NaCl, 2.5 mM KCl, 1 mM CaCl2, 1.5 mM MgCl2, 4.5 mM HEPES, pH 7.4). After calcium staining culture, the chamber was placed under an inverted microscope and rinsed with Ringer's solution for 20 minutes before treatment with […]. In this case, the flow rate of the solution is 12 ml/min. Next, the primary microglia were treated with 300 μM ATP (#A2383; Sigma Aldrich) for 5 seconds. After being washed for 5 minutes, the primary microglia were treated with a 2-pentylfuran solution at a concentration of 100 μM for 5 seconds. This step was performed with a 2-pentylfuran solution at two concentrations (300 and 1000 μM). Finally, the primary microglia were treated with a 300 μM ATP solution for 5 seconds. The emitted fluorescent material was photographed using a CCD camera every 2 seconds. Pseudo-color images were converted using fractional fluorescence changes (ΔF/F, Δ[Ca^2+]i). Furthermore, these images show changes in intracellular calcium ions. […]

[3] = test system: Olfr110; experiment: Odorant receptor / Olfr110 expression in microglia (qRT-PCR, immunostaining); assay type: cell-based, mouse; conditions: vs control
Excerpt: For the measurement of mRNA, RNA was isolated from red blood cells, microglia, astrocytes, Hana3A cells, or cerebral cortical cells using the MagNa Lyser (Roche Molecular Diagnostics) using TRIzol reagent (Invitrogen, Carlsbad, CA.) according to the manufacturer's protocol. Then, cDNA was generated through reverse transcription using the isolated mRNA (using PrimeScript™ 1st str and cDNA Synthesis kit—#6110; Takara Bio Inc). This process was quantitatively measured in real time through quantitative real-time-PCR (using LightCycler® 480 SYBR Green I Master). The measured values were calculated using the 2-ΔΔCt method.
Thereafter, the cells were washed with PBS and fixed in 4% paraformaldehyde (#6148; Sigma Aldrich) for 5 minutes. Subsequently, the cells were cultured in PBS containing 4% normal horse serum (#008-000-121; Jackson ImmunoResearch) and 0.1% TWEEN® 20 (#P9416; Sigma-Aldrich) at room temperature for 1 hour. Then, the cells were […] at 4° C. overnight with the primary antibodies listed below. The antibodies are as follows: Olfr110 (rabbit-anti-Olfr110; 1:10,000; #ab177327; Abcam), Iba-1 (goat-anti-Iba-1; 1:1,000; #ab5076; Abcam), and GFAP (mouse-anti-GFAP; 1:1,000; #556330; BD Biosciences). Samples were cultured with secondary antibodies in PBS including 0.1% TWEEN® 20 (#P9416; Sigma-Aldrich) at room temperature for 1 hour. […]

[4] = test system: Hana3A cells expressing Olfr110; experiment: Boyden chamber chemotaxis, Hana3A cells expressing Olfr110; assay type: cell-based; conditions: 2-PF 10, 100, 1000 uM
Method: Cell chemotaxis was measured using a multiwell Boyden chamber. More specifically, a polycarbonate filter (8 μm pore; #101-8; Neuroprobe) was coated with […] fibronectin in PBS (Sigma-Aldrich) for 2 hours, and the coated filter was placed in a Boyden chamber. In addition, the bottom side of the plate was filled with serum-free DMEM containing 2-pentylfuran or a culture supernatant. Next, microglia or Hana3A cells were transfected with an odorant receptor structure and then suspended in serum-free DMEM. Subsequently, microglia and Hana3A cells were allowed to stand at 37° C. for 4 hours and 8 hours, respectively. Cells sinking to the bottom were fixed with 4% PFA, and stained with hematoxylin for 10 minutes. Fixed cells were counted under an optical microscope in 5 randomly selected fixed […] fields (200×) using a scored eyepiece. The chemical chemotaxis index was defined as the number of migrating cells using an untreated group as a standard.

[5] = test system: primary microglia; experiment: cAMP ELISA in primary microglia; assay type: cell-based, mouse; conditions: 2-PF 0, 100, 500 μM
Method: Primary microglia were inoculated into 48 well plates (2×10^5 cells/well) and treated with 30 μM forskolin (#F3917, Sigma Aldrich), or 2-PF (10, 100, 500 μM) for 30 minutes. In order to confirm the effect of an inhibitor, 1 mM SQ22536 (#17318-31-9; Calbiochem) was first pretreated for 30 minutes. The cells were lysed in a solution of 0.1 M of HCl with 1% Triton X 100 for 10 minutes, and the lysate was centrifuged at 600×g for 2 minutes. The supernatant was directly used for cAMP analysis using a cAMP ELISA kit (Enzo Life Science) according to the manufacturer's protocol. The optical density at 405 nm was measured using a VersaMax microplate reader (Molecular Devices).

Question: How did the “production of active oxygen on top of Sup MOI 5” value ([1]; 500 μM 2-PF) turn out when `CCCCCc1ccco1` [2-PF, 2-pentylfuran] was run?
Answer: The value was “further increased”.

Question: What about the “active oxygen secretion of microglia” value ([1]; 100, 300, and 500 μM) of the same compound?
Answer: The value was “significantly increased in a concentration-dependent manner”.

Question: And the “intracellular calcium ion levels” value [2]?
Answer: The value was “increased according to an injection amount”.

Question: What about the “Olfr110 protein level (immunostaining)” value [3] of the same compound?
Answer: The value was “significantly increases”.

Question: What about the “mobility (chemotaxis) of Olfr110-expressing Hana3A cells” value [4] of the same compound?
Answer: The value was “increased in mobility in a concentration-dependent manner”.

Question: What about the “cAMP concentration in primary microglia” value [5] of the same compound?
Answer: Its value is “increased by 2-PF treatment in a concentration dependent manner”.
